Assay results: ChEMBL document CHEMBL1201862, “PubChem BioAssay data set” (2004)
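Protocol summary: plate cells (96-well), add compound at 5 concentrations, incubate 48 h, interpolate endpoints linearly. GI50 is the concentration that inhibits growth by half.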 The source made the active and inactive calls. No stated cut-off is given here; in the data, active = GI50 up to about 1.1 µM and inactive = higher. Non-standard residues stand in square brackets, D forms with d. Residues, ends and D or L forms follow the SMILES beside them. *: point of attachment. NMeF = CN[CH](Cc1ccccc1)C(=O)O; NMeV = CN[CH](C(=O)O)C(C)C; Boc = CC(C)(C)OC(=O)*

Legend:
Experiment in all cases: NCI anticancer screen, dose series, 48 h
Malme-3M = tested on: Malme-3M
OVCAR-3 = tested on: OVCAR-3
LXFL 529 = tested on: LXFL 529
TK-10 = tested on: TK-10
A498 = tested on: A498
ACHN = tested on: ACHN
K562 = tested on: K562
DLD-1 = tested on: DLD-1
SF-268 = tested on: SF-268
NCI-H23 = tested on: NCI-H23
NCI-H226 = tested on: NCI-H226
HL-60 = tested on: HL-60
KM12 = tested on: KM12
DMS-273 = tested on: DMS-273
NCI-H460 = tested on: NCI-H460
SK-MEL-5 = tested on: SK-MEL-5
HCC 2998 = tested on: HCC 2998
SNB-75 = tested on: SNB-75

SMILES | GI50 (Malme-3M) | GI50 (OVCAR-3) | GI50 (LXFL 529) | GI50 (TK-10) | GI50 (A498) | GI50 (ACHN) | GI50 (K562) | GI50 (DLD-1) | GI50 (SF-268) | GI50 (NCI-H23) | GI50 (NCI-H226) | GI50 (HL-60) | GI50 (KM12) | GI50 (DMS-273) | GI50 (NCI-H460) | GI50 (SK-MEL-5) | GI50 (HCC 2998) | GI50 (SNB-75)
COc1ccc(C2C(Cl)C(=O)N2NC(=O)c2ccccc2O)cc1OC (centres undefined) | 65.3 µM (inactive) | 75.9 µM (inactive) | > 10 µM (inactive) | > 100 µM (inactive) | > 100 µM (inactive) | > 100 µM (inactive) | 50.2 µM (inactive) | > 100 µM (inactive) | 54.2 µM (inactive) | > 100 µM (inactive) | > 100 µM (inactive) | 41 µM (inactive) | 92.3 µM (inactive) | > 100 µM (inactive) | 49.5 µM (inactive) | 60 µM (inactive) |  | 
CN1C=C(C(N)=O)C2CC(O)[C@@](NC(=O)CS(N)(=O)=O)(C(=O)O)C2C1 (some centres undefined) | 4.57 µM (inactive) | 17.5 µM (inactive) |  | 3.92 µM (inactive) | 2.03 µM (inactive) | 4.88 µM (inactive) | 2.17 µM (inactive) | 16.8 µM (inactive) | 3.02 µM (inactive) | 1.86 µM (inactive) | 2.68 µM (inactive) | < 0.01 µM (active) | 20.7 µM (inactive) | 3.21 µM (inactive) | 3.49 µM (inactive) | 6.31 µM (inactive) | 18.5 µM (inactive) | 2.23 µM (inactive)
Nc1nc(=O)[nH]c2c1cnn2COCCO | > 100 µM (inactive) |  | > 100 µM (inactive) | 20.7 µM (inactive) | > 100 µM (inactive) | > 100 µM (inactive) | > 100 µM (inactive) | > 100 µM (inactive) | > 100 µM (inactive) | 17.3 µM (inactive) | 0.281 µM (active) | > 100 µM (inactive) | > 100 µM (inactive) | > 100 µM (inactive) | > 100 µM (inactive) | > 100 µM (inactive) |  | > 100 µM (inactive)
CN(C)c1ccc(/C=C/C=C\c2cc(/C=C/C=C/c3ccc(N(C)C)cc3)[s+]c3ccccc23)cc1.[O-][Cl+3]([O-])([O-])[O-] | 24.4 µM (inactive) | 31.8 µM (inactive) | 8.26 µM (inactive) | > 100 µM (inactive) | > 100 µM (inactive) |  | > 100 µM (inactive) |  | > 100 µM (inactive) | 10 µM (inactive) | > 100 µM (inactive) | 4.53 µM (inactive) | > 100 µM (inactive) | 46.1 µM (inactive) | > 100 µM (inactive) | 43.8 µM (inactive) |  | > 100 µM (inactive)
NC(CCC(=O)NC(CSSCCCCS(=O)O)C(=O)NCC(=O)O)C(=O)O (centres undefined) | > 100 µM (inactive) | > 100 µM (inactive) | > 100 µM (inactive) | > 100 µM (inactive) | > 100 µM (inactive) | > 100 µM (inactive) | > 100 µM (inactive) | > 100 µM (inactive) | > 100 µM (inactive) | > 100 µM (inactive) |  |  | > 100 µM (inactive) | > 100 µM (inactive) | > 100 µM (inactive) | > 100 µM (inactive) | > 100 µM (inactive) | 23.4 µM (inactive)
CC(C)C(NC(=O)OC(C)(C)C)C(=O)N(C)C(Cc1ccccc1)C(=O)N(C)C(C(=O)N(C)C(C(=O)O)C(C)C)C(C)C (centres undefined) (Boc-V[NMeF][NMeV][NMeV]-OH; configuration not given here) | > 100 µM (inactive) | > 100 µM (inactive) | > 100 µM (inactive) | > 100 µM (inactive) |  | > 100 µM (inactive) | > 100 µM (inactive) |  | > 100 µM (inactive) | > 100 µM (inactive) | > 100 µM (inactive) | > 100 µM (inactive) | > 100 µM (inactive) | > 100 µM (inactive) | > 100 µM (inactive) | > 100 µM (inactive) | > 100 µM (inactive) | 
CN(C)CCCNC(=O)c1cccc2ccccc12 | > 100 µM (inactive) | > 100 µM (inactive) | > 100 µM (inactive) | > 100 µM (inactive) |  | > 100 µM (inactive) | > 100 µM (inactive) | > 100 µM (inactive) | > 100 µM (inactive) | > 100 µM (inactive) | > 100 µM (inactive) | 12.7 µM (inactive) | > 100 µM (inactive) | > 100 µM (inactive) | > 100 µM (inactive) | > 100 µM (inactive) |  | > 100 µM (inactive)
CCOC(=O)c1ccc(N2C(=O)Cc3ccccc3C2=O)cc1 | > 100 µM (inactive) | > 100 µM (inactive) | > 100 µM (inactive) | > 100 µM (inactive) |  | > 100 µM (inactive) | > 100 µM (inactive) |  | > 100 µM (inactive) | > 100 µM (inactive) | > 100 µM (inactive) |  | > 100 µM (inactive) | > 100 µM (inactive) |  | > 100 µM (inactive) | > 100 µM (inactive) | > 100 µM (inactive)
O=C1C2=C(CCC2)Nc2cccc3ncn1c23 | > 100 µM (inactive) |  | > 100 µM (inactive) | 14.7 µM (inactive) |  | 33.2 µM (inactive) | > 100 µM (inactive) | 51.9 µM (inactive) | > 100 µM (inactive) | 51.6 µM (inactive) |  | 15 µM (inactive) | 28.8 µM (inactive) | > 100 µM (inactive) | 33.7 µM (inactive) | 69.5 µM (inactive) | > 100 µM (inactive) | 
